Laboratory results as given in patent publication US20130158070A1, “CONJUGATES OF POLYUNSATURATED FATTY ACIDS AND AMINE-CONTAINING COMPOUNDS AND USES THEREOF” (priority 2010, published 2013).
Several values for one entry are separate records, joined by “and”; a condition that tells them apart may be missing. Equal values may be shown once.

Assays:
COX-2 = target: T1, COX-2 (Homo sapiens, UniProt P35354); assay: COX-2 inhibition, enzyme immunoassay (EIA); format: biochemical; settings: ratio of COX-1 IC50 to COX-2 IC50
T1 sequence (P35354 18-604): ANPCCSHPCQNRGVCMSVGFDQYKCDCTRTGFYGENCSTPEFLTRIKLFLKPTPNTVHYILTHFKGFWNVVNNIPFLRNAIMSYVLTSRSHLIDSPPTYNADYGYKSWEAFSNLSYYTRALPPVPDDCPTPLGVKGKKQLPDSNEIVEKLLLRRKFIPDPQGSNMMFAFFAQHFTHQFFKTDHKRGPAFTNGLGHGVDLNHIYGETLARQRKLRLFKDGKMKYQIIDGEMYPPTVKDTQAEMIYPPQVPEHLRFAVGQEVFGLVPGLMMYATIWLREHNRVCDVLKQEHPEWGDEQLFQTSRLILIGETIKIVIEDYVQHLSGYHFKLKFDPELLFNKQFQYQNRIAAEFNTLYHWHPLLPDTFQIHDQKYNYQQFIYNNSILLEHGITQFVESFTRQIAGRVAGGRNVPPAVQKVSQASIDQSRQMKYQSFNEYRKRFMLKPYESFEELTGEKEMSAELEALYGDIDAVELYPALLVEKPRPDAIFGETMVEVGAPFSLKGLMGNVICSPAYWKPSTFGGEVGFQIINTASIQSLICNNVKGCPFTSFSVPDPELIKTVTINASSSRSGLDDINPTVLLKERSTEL
Protocol: Exemplary conjugates as described herein were tested in vitro for inhibition of COX-1 and COX-2, using an enzyme immunoassay (EIA), as follows.
Cyclooxygenase catalyzes the first step in the biosynthesis of arachidonic acid (AA) to PGH2. PGF2α, produced from PGH2 by reduction with stannous chloride, is measured by enzyme immunoassay (ACETM competitive EIA).
Stock solutions of test compounds were dissolved in a minimum volume of DMSO. Briefly, to a series of supplied reaction buffer solutions (960 μl, 0.1M Tris-HCl pH 8.0 containing 5 mM EDTA and 2 mM phenol) with either COX-1 or COX-2 (10 μl) enzyme in the presence of heme (10 μl) were added 10 μl of various concentrations of test drug solutions (0.01, 0.1, 1, 10, 50, and 100 μM in a final volume of 1 ml). These solutions were incubated for a period of 5 minutes at 37° C. after which 10 μL of AA (100 μM) solution were added and the COX reaction was stopped by the addition of 50 μl of 1M HCl after 2 minutes. PGF2α, produced from PGH2 by reduction with stannous chloride was measured by enzyme immunoassay.
This assay is based on the competition between PGs and a PG-acetylcholinesterase conjugate (PG tracer) for a limited amount of PG antiserum. The amount of PG tracer that is able to bind to the PG antiserum is inversely proportional to the concentration of PGs in the wells since the concentration of PG tracer is held constant while the concentration of PGs varies. The concentration of the test compound causing 50% inhibition (IC50, μM) was calculated from the concentration-inhibition response curve (duplicate determinations).

hERG channels = target: T2, hERG channels (Homo sapiens, UniProt Q12809); assay: hERG channels expressed in Xenopus oocytes, two-electrode voltage clamp; format: cell-based; set-up: initial current / final current / remaining current / avarage (remaining current): unit not given here; settings: for final current: at −130 mV; for final current / remaining current / initial current: individual oocytes; for avarage (remaining current): 5 oocytes; for initial current: at −130 mV after pre-pulse to +40 mV
T2 construct: expressed in transfected cells; host or cells: Xenopus laevis oocytes injected with hERG cRNA (pSP64 vector, SP6 promoter)
Protocol: The sensitivity of hERG channels to two compounds, MWL001 also termed in the application as MW001 or MWL-001 and MWL002 also termed MW002 or MWL-002, was tested using the Xenopus oocyte expression system and the two-electrode voltage clamp technique. Activity of the compounds was tested at a concentration of 15 μM both from the external and from the internal sides of the membrane.
Clones: hERG gene (gi|26051269) was cloned within pSP64 expression vector (Promega) downstream to a SP6 RNA polymerase promoter. cRNA was prepared following digestion with EcoR I.
Electrophysiology: Xenopus laevis oocytes were isolated, defolliculated and maintained at 17° C. in ND-91 solution (in mM): 91 NaCl, 2 KCl, 1.8 CaCl2, 1 MgCl2, and 5 HEPES, pH 7.5, supplemented with 100 U/ml penicillin, 100 μg/ml streptomycin and 50 μg/ml gentamycin. Oocytes were injected with 20 or 40 nl, containing 7-14 ng of hERG cRNA. Whole-cell currents were measured 2-3 days after injection by the two-electrode voltage clamp technique (TEVC), using a GeneClamp 500B amplifier (Axon Instruments). Data were filtered at 2 kHz and sampled at 5 kHz with Clampex 9.0 software (Axon Instruments). The pipette was filled with 3M KCl and the bath solution contained (in mM): 4 KCl, 96 NaCl, 1 MgCl2, 0.3 CaCl2, 5 HEPES, pH 7.4. For external application of the compounds, stock solutions of either MWL001 or MWL002 were dissolved in the bath solution to a final concentration of 15 μM. During the experiments, bath solution exchange rate was about 2 ml/minutes. At this rate, more than 95% of the bath solution is replaced within 30 seconds. For internal blockade measurements, oocytes were injected with 46 nl of diluted (0.274 mM) compound solutions to achieve a final concentration within the oocyte of 15 μM.
Internal application: Compounds were injected into the oocyte to achieve a final concentration of 15 μM. Injection was made during current measurements and results were collected before and for 5 minutes after the injection. Current levels were determined in 4 seconds intervals at −130 mV, following a pre-pulse to +40 mV (see, Table 4 and FIG. 3).
External application: MWL compounds were applied at 15 μM concentration in the bath solution and current levels were determined in 4 seconds intervals at −130 mV, following a pre-pulse to +40 mV, for 15 minutes (see, Table 4). In addition, measurements were made to determine channel behavior throughout the entire physiological voltage range.
Table 4 presents the data obtained for the effect of MWL compounds on expressed hERG channels in individual oocytes which were either incubated (external) or injected (internal) with MWL compounds. Currents were monitored for 15 or 5 minutes, respectively.

[1] = external application 15 μM in bath, monitored 15 minutes
[2] = external application 15 μM, 15 minutes
[3] = external application, before exposure
[4] = internal application (injected) 15 μM, 5 minutes
[5] = internal application (injected) 15 μM, monitored 5 minutes
[6] = internal application, before injection

T2 sequence (Q12809 whole entry): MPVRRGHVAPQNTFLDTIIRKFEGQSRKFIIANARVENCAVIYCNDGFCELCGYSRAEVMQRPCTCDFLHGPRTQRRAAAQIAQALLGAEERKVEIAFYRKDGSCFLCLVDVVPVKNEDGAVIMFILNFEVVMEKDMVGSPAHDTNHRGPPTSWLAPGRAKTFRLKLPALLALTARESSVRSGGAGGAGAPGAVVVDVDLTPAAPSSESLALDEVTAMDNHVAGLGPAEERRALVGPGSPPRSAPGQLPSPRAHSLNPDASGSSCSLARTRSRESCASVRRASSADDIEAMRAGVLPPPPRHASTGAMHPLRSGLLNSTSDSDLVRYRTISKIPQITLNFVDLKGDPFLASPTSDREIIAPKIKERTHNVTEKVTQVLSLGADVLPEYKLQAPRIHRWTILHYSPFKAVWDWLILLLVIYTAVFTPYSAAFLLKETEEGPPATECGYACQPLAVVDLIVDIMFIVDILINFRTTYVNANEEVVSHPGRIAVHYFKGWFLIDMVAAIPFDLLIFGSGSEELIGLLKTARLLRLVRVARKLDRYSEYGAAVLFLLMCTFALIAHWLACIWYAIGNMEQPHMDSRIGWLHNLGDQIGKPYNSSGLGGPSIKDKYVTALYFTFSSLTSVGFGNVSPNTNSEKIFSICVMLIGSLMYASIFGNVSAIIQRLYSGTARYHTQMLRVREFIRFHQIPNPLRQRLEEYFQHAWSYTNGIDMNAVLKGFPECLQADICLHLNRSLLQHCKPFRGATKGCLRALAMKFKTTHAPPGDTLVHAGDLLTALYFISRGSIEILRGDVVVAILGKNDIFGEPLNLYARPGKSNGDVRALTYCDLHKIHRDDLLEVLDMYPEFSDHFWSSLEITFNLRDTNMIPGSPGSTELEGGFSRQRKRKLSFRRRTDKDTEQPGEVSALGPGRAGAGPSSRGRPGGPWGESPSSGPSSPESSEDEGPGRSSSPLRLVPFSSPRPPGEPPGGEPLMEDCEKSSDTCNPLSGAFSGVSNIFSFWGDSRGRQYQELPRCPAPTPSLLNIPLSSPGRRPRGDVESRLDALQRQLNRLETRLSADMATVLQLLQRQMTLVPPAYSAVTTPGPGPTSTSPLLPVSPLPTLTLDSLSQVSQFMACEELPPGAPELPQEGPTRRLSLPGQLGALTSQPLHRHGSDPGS

SMILES	Ratio (COX ½) (COX-2)	final current (hERG channels; [1])	avarage (remaining current) (hERG channels; [2])	remaining current (hERG channels; [2])	initial current (hERG channels; [3])	avarage (remaining current) (hERG channels; [4])	remaining current (hERG channels; [4])	final current (hERG channels; [5])	initial current (hERG channels; [6])	effect on hERG channel currents (hERG channels; 15 μM, internal and external exposure)
CCC=CCC=CCC=CCC=CCC=CCC=CCCC(=O)N1CC(O)CC1C(=O)O (stereo not shown) [MWL001]	464.11	−12.8 and −15.5 and −15.8 and −10.8 and −26.0	95.7	100.8 and 91.2 and 98.1 and 100.0 and 88.6	−12.7 and −17.0 and −16.1 and −10.8 and −29.3	101.6	95.6 and 101.8 and 112.3 and 100.0 and 98.4	−6.5 and −11.1 and −15.5 and −9.5 and −18.5	−6.8 and −10.9 and −13.8 and −9.5 and −18.8	
CC/C=C\C/C=C\C/C=C\C/C=C\C/C=C\C/C=C\CCC(=O)NCCS(=O)(=O)O [MWL002, N-docosa-4,7,10,13,16,19-hexaenoyl-taurine]	27.86	−7.1 and −5.0 and −7.2 and −18.0 and −9.0	108.2	91.6 and 109.9 and 120.0 and 102.9 and 116.9	−7.8 and −4.6 and −6.0 and −17.5 and −7.7	106.9	109.6 and 103.2 and 101.8 and 107.5 and 112.7	−13.7 and −6.5 and −11.5 and −7.2 and −8.0	−12.5 and −6.3 and −11.3 and −6.7 and −7.1	no sensitivity
